Counter-ions that a name gives are not always drawn. Each block holds one compound with its values, some of them ahead of it.
Key:
human cardiac OOC [1] = tested on: human cardiac OOC
Text: (§2) The pillars subjected the hydrogel to mechanical loading designed to mimic that in the native heart. The hydrogel compaction caused passive tension in the tissues as they're stretched and aligned between the pillars. Synchronous contractions forced the tissues to work against the pillars. […] Cardiac model development: Cardiac tissues were formed by cell encapsulation in fibrin hydrogel. Human iPS cell-derived cardiomyocytes at day 16 of differentiation were combined with normal human dermal fibroblasts (NHDF; Lonza) at a ratio of 75% hiPSC-CMs and 25% NHDF, for a total of 1 million cells per tissue. The hydrogel was formed by mixing 33 mg/mL of fibrinogen from human plasma (Sigma-Aldrich) with 25 U/mL of thrombin from human plasma (Sigma-Aldrich), on a 84:16 ratio. The hydrogel mixed with the cells was dispensed into each well of the tissues formation reservoir and allowed to polymerize at 37° C. for 15 min before adding RPMI Medium 1640 supplemented with B-27™ containing 0.2 mg/ml aprotinin (Sigma-Aldrich). Subsequently, medium was changed every other day supplemented with 0.2 mg/ml aprotinin for the first 7 days. After 7 days, tissues were used in experiments. […] Contractility videos: Tissue contractility was measured by tracking the change in tissue area as a function of time. […] Absolute differences in cell area from the baseline frame were then calculated to create a time course of cell area dynamics as a function of time. The resulting time courses were analysed using a native MATLAB (MATHWorks) automated peak finding algorithm to determine locations of maximum cell contraction indicated by the locations of local maxima in the time courses. Beat period lengths were determined from the length of time between the pairs of local maxima. Beat frequencies were determined by inverting beat periods; relaxation times were measured from the length of time required for the tissue to relax from the peak contraction amplitude of the local maxima to the calculated relaxation amplitude.

all tissue types = assay: Doxorubicin study in integrated multi-tissue platform: common toxicity readouts; assay type: cell-based, human; conditions: 72 hours after 30 μM dose
cardiac compartment = assay: Doxorubicin study: cardiac compartment function; assay type: cell-based, human; conditions: 30 μM, 72 hours
skin tissues = assay: Doxorubicin study: skin barrier transport and TEER; assay type: cell-based, human; conditions: 30 μM, 72 hours, isolated and integrated comparable
Procedure: (§1) Common tissue responses were measured for each tissue individually, 72 hours after their assembly into the integrated platform and exposure to 30 μM concentration of doxorubicin introduced into the circulatory perfusion. FIG. 61 illustrates the Doxorubicin (Dox) drug study design including four conditions tests (integrated control, integrated Dox, isolated control, isolated Dox).

Liver tissues = assay: Doxorubicin study: liver functionality; assay type: cell-based, human; conditions: 30 μM, 72 hours, only in the integrated experimental groups
Procedure: as §1

Bone tissues = assay: Doxorubicin study: bone remodeling and histology; conditions: 30 μM, 72 hours
Procedure: as §1

human cardiac OOC [2] = assay: cells; conditions: read-out: EC50 of increase in beat frequency
Text: as §2

SMILES: Cn1c(=O)c2c(ncn2C)n(C)c1=O [caffeine]
beat frequency (human cardiac OOC [1]; caffeine 50 mM): increase in beat frequency

release of troponin (cardiac compartment): increased release of troponin
electrical resistance (TEER) of skin (skin tissues): electrical resistance decreased
albumin production (Liver tissues): decreased albumin
urea production (Liver tissues): unaffected urea production
TRAP activity (bone remodeling) (Bone tissues): stable TRAP responses
SMILES: COc1cccc2c1C(=O)c1c(O)c3c(c(O)c1C2=O)C[C@@](O)(C(=O)CO)C[C@@H]3O[C@H]1C[C@H](N)[C@H](O)[C@H](C)O1 [doxorubicin, doxorubicin hydrochloride]
cell viability (all tissue types): significant decreases
glucose consumption (all tissue types): significant decreases
mitochondrial activity (all tissue types): significant decreases
contractile and conductive behavior (cardiac compartment): decreased contractile and conductive behavior

SMILES: CCCCc1oc2ccccc2c1C(=O)c1cc(I)c(OCCN(CC)CC)c(I)c1 [amiodarone, amiodarone hydrochloride]
beating frequency (human cardiac OOC [1]; amiodarone 2.42 μM (FIG. 50 legend prints 2.42 M), over 48 hours): beating frequency decreased

EC50 (human cardiac OOC [2]): 30 nM
SMILES: CC(C)NCC(O)c1ccc(O)c(O)c1 (stereo not drawn) [isoproterenol, isoproterenol hydrochloride]
